Results taken from paper PMC9078697, “Discovery and preliminary SAR of 14-aryloxy-andrographolide derivatives as antibacterial agents with immunosuppressant activity” (RSC Advances, 2018).

Experiments:
Format in all cases: cell-based
S. aureus = assay: Bacteriostatic screening (growth, OD630) against S. aureus; conditions: for inhibition rate SA (symbol /): at 250 μM of tested compound
Protocol: (§1) The strategy in this study was to submit these synthesized compounds to a preliminary screening test against E. coli, S. aureus and E. faecalis (ciprofloxacin was used as a reference compound; see Table 1). […] The tested compound or ciprofloxacin (positive drug) was dissolved in DMSO and diluted with LB liquid medium into a stock solution containing 20% DMSO before use; the stock solution of the carrier was 20% DMSO in LB liquid medium. All the experiments, including blank controls, were performed in triplicate. Bacteriostatic screening was performed by applying a modified protocol of the National Committee on Clinical Laboratory Standards (NCCLS).[29] Briefly, E. coli, S. aureus and E. faecalis cells (American Type Culture Collection, ATCC) were grown in LB plate medium for one passage, then seeded in LB liquid medium and cultured at 37 °C for 12 h. After being diluted 1000 times, 190 μL diluted cells were aliquoted to 96-well plates; then, 10 μL stock solution of carrier or a gradient amount of the tested compound or the positive compound, ciprofloxacin, were added; the final concentration of DMSO was 1% in all wells. The blank controls contained 1% DMSO and LB medium but no bacterial cells.

E. faecalis = assay: Bacteriostatic screening (growth, OD630) against E. faecalis; conditions: for IC50: 24 h, IC50 generated when inhibition at 250 μM was higher than 80%
Protocol: as §1

E. coli = assay: Bacteriostatic screening (growth, OD630) against E. coli; conditions: for inhibition rate EC (symbol /): at 250 μM of tested compound
Protocol: as §1

[1] = at 250 μM of the tested compound, 250 µM
[2] = at 250 μM of the tested compound

Row | Molecule | IC50 (E. faecalis) [µM] | inhibition rate EC (symbol /) (E. coli) | inhibition rate (%) EC (E. coli; [2]) | inhibition rate (%) SA (S. aureus; [2]) | further results
1 | C=C1CCC2C(C)(CO)C(O)CCC2(C)C1CC=C1C(=O)OCC1Oc1ccc(C(=O)OCC)cc1 (stereo not drawn) [6a9, (14α)-(4′-Carboxyethyl ester)phenoxy-andrographolide] | 38.3 ± 5.9 | / (“/”represents no inhibition or lower than 10% inhibition rate at 250 μM of tested compound) | – | – | inhibition rate SA (symbol /) (S. aureus): / (“/”represents no inhibition or lower than 10% inhibition rate at 250 μM of tested compound)
2 | C=C1CCC2C(C)(CO)C(O)CCC2(C)C1CC=C1C(=O)OCC1Oc1ccccc1OC (stereo not drawn) [6a12, (14α)-(2′-Methoxy)phenoxy-andrographolide] | 75.6 ± 17.8 | / (“/”represents no inhibition or lower than 10% inhibition rate at 250 μM of tested compound) | – | – | inhibition rate (%) SA (S. aureus; [1]): (14) %
3 | C=C1CCC2C(C)(CO)C(O)CCC2(C)C1CC=C1C(=O)OCC1Oc1cccnc1[N+](=O)[O-] (stereo not drawn) [6a15, (14α)-(2′-Nitro-pyridinyl-3′-oxy)andrographolide] | 56.7 ± 5.5 | – | (14) % | – | inhibition rate (%) SA (S. aureus; [1]): (13) %
4 | C=C1CCC2C(C)(CO)C(O)CCC2(C)C1CC=C1C(=O)OCC1Oc1ccnc2ccccc12 (stereo not drawn) [6a16, (14α)-(Quinolyl-4′-oxy)andrographolide] | 65.8 ± 13.5 | / (“/”represents no inhibition or lower than 10% inhibition rate at 250 μM of tested compound) | – | (22) % | –
5 | C=C1CCC2C(C)(CO)C(O)CCC2(C)C1CC=C1C(=O)OCC1Oc1ccc([N+](=O)[O-])cc1F (stereo not drawn) [6b2, (14β)-(2′-Fluoro-4′-nitro)phenoxy-andrographolide] | 24.4 ± 3.2 | – | – | – | inhibition rate (%) SA (S. aureus; [1]): (25) %; inhibition rate (%) EC (E. coli; [1]): (42) %
6 | C=C1CCC2C(C)(CO)C(O)CCC2(C)C1CC=C1C(=O)OCC1Oc1ccc([N+](=O)[O-])c(F)c1 (stereo not drawn) [6b4, (14β)-(3′-Fluoro-4′-nitro)phenoxy-andrographolide] | 19.6 ± 2.7 | – | (60) % | (28) % | –
7 | C=C1CCC2C(C)(CO)C(O)CCC2(C)C1CC=C1C(=O)OCC1Oc1ccc([N+](=O)[O-])c(OC)c1 (stereo not drawn) [6b5, (14β)-(3′-Methoxy-4′-nitro)phenoxy-andrographolide] | 21.8 ± 2.5 | – | – | – | inhibition rate (%) SA (S. aureus; [1]): (37) %; inhibition rate (%) EC (E. coli; [1]): (23) %
8 | C=C1CCC2C(C)(CO)C(O)CCC2(C)C1CC=C1C(=O)OCC1Oc1ccccc1[N+](=O)[O-] (stereo not drawn) [6b6, (14β)-(2′-Nitro)phenoxy-andrographolide] | 15.9 ± 9 | – | (28) % | (12) % | –
9 | C=C1CCC2C(C)(CO)C(O)CCC2(C)C1CC=C1C(=O)OCC1Oc1cccc([N+](=O)[O-])c1 (stereo not drawn) [6b7, (14β)-(3′-Nitro)phenoxy-andrographolide] | 17.8 ± 4.2 | / (“/”represents no inhibition or lower than 10% inhibition rate at 250 μM of tested compound) | – | 26% | –
10 | C=C1CCC2C(C)(CO)C(O)CCC2(C)C1CC=C1C(=O)OCC1Oc1ccccc1C(=O)OCC (stereo not drawn) [6b8, (14β)-(2′-Carboxyethyl ester)phenoxy-andrographolide] | 89.7 ± 12 | – | (21) % | – | inhibition rate SA (symbol /) (S. aureus): / (“/”represents no inhibition or lower than 10% inhibition rate at 250 μM of tested compound)
11 | C=C1CCC2C(C)(CO)C(O)CCC2(C)C1CC=C1C(=O)OCC1Oc1ccc(C(=O)OCC)cc1 (stereo not drawn) [6b9, (14β)-(4′-Carboxyethyl ester)phenoxy-andrographolide] | 53.3 ± 4.1 | – | (17) % | (40) % | –
12 | C=C1CCC2C(C)(CO)C(O)CCC2(C)C1CC=C1C(=O)OCC1Oc1ccc(C#N)cc1 (stereo not drawn) [6b10, (14β)-(4′-Cyano)phenoxy-andrographolide] | 72.1 ± 9.4 | – | (39) % | (29) % | –
13 | C=C1CCC2C(C)(CO)C(O)CCC2(C)C1CC=C1C(=O)OCC1Oc1ccc(OC)cc1 (stereo not drawn) [6b11, (14β)-(4′-Methoxy)phenoxy-andrographolide] | – | / (“/”represents no inhibition or lower than 10% inhibition rate at 250 μM of tested compound) | – | – | inhibition rate SA (symbol /) (S. aureus): / (“/”represents no inhibition or lower than 10% inhibition rate at 250 μM of tested compound); inhibition rate (%) EF (E. faecalis; [2]): (17) %
14 | C=C1CCC2C(C)(CO)C(O)CCC2(C)C1CC=C1C(=O)OCC1Oc1ccccc1OC (stereo not drawn) [6b12, (14β)-(2′-Methoxy)phenoxy-andrographolide] | 20.8 ± 4.5 | – | (12) % | – | inhibition rate (%) SA (S. aureus; [1]): (13) %
15 | C=C1CCC2C(C)(CO)C(O)CCC2(C)C1CC=C1C(=O)OCC1Oc1cccc(OC)c1 (stereo not drawn) [6b13, (14β)-(3′-Methoxy)phenoxy-andrographolide] | 138 ± 5.4 | – | 15% | 13% | –
16 | C=C1CCC2C(C)(CO)C(O)CCC2(C)C1CC=C1C(=O)OCC1Oc1cccc2ccccc12 (stereo not drawn) [6b14, (14β)-(Naphthyl-1′-oxy)andrographolide] | – | – | (35) % | (18) % | inhibition rate (%) EF (E. faecalis; [2]): (50) %
17 | C=C1CCC2C(C)(CO)C(O)CCC2(C)C1CC=C1C(=O)OCC1Oc1cccnc1[N+](=O)[O-] (stereo not drawn) [6b15, (14β)-(2′-Nitro-pyridinyl-3′-oxy)andrographolide] | 29.3 ± 2.1 | – | (14) % | – | inhibition rate (%) SA (S. aureus; [1]): (41) %
18 | C=C1CCC2C(C)(CO)C(O)CCC2(C)C1CC=C1C(=O)OCC1Oc1ccnc2ccccc12 (stereo not drawn) [6b16, (14β)-(Quinolyl-4′-oxy)andrographolide] | 58.5 ± 4.2 | / (“/”represents no inhibition or lower than 10% inhibition rate at 250 μM of tested compound) | – | – | inhibition rate SA (symbol /) (S. aureus): / (“/”represents no inhibition or lower than 10% inhibition rate at 250 μM of tested compound)
19 | C=C1CC[C@H]2[C@@](C)(CCC(=O)[C@@]2(C)CO[Si](C)(C)C(C)(C)C)[C@@H]1C/C=C1/C(=O)OC[C@@H]1Oc1cccc2cccnc12 [8b2, (14β)-(quinolyl-8′-oxy)-3-keto-19-(t-butyldimethylsilyloxy)andrographolide] | – | – | – | – | inhibition at 250 µM (S. aureus; Staphylococcus aureus, at 250 μM of the tested compound, read-out: inhibition rate (%) SA): 28%; inhibition at 250 µM (E. faecalis; Enterococcus faecalis, at 250 μM of the tested compound, read-out: inhibition rate (%) EF): 71%; inhibition at 250 µM (E. coli; Escherichia coli, at 250 μM of the tested compound, read-out: inhibition rate (%) EC): 25%
20 | O=C(O)c1cn(C2CC2)c2cc(N3CCNCC3)c(F)cc2c1=O [Ciprofloxacin, reference compound] | – | – | – | – | IC50 (S. aureus; Staphylococcus aureus, 24 h, IC50 generated when inhibition at 250 μM was higher than 80%): 0.4 ± 0.06 µM; IC50 (E. faecalis; Enterococcus faecalis): 2.3 ± 0.6 µM; IC50 (E. coli; Escherichia coli, 24 h, IC50 generated when inhibition at 250 μM was higher than 80%): 0.31 ± 0.06 µM
21 | (14α)-(2′-Carboxy ethyl ester-4′-nitro)phenoxy-andrographolide [6a1] | 72.2 ± 9.2 | / (“/”represents no inhibition or lower than 10% inhibition rate at 250 μM of tested compound) | – | (10) % | –
22 | (14α)-(2′-Fluoro-4′-nitro)phenoxy-3,19-acetonylidene andrographolide [5a2] | 56.7 ± 6.5 | – | (20) % | (20) % | –
23 | (14β)-(2′-Carboxy ethyl ester)phenoxy-3,19-acetonylidene andrographolide [5b8] | – | / (“/”represents no inhibition or lower than 10% inhibition rate at 250 μM of tested compound) | – | – | inhibition rate SA (symbol /) (S. aureus): / (“/”represents no inhibition or lower than 10% inhibition rate at 250 μM of tested compound); inhibition rate (%) EF (E. faecalis; [2]): (22) %
24 | (14β)-(2′-Carboxy ethyl ester-4′-nitro)phenoxy-andrographolide [6b1] | 27.7 ± 3.5 | – | (17) % | (40) % | –
25 | (14β)-(2′-Nitro)phenoxy-3,19-acetonylidene andrographolide [5b6] | – | / (“/”represents no inhibition or lower than 10% inhibition rate at 250 μM of tested compound) | – | – | inhibition rate SA (symbol /) (S. aureus): / (“/”represents no inhibition or lower than 10% inhibition rate at 250 μM of tested compound); inhibition rate (%) EF (E. faecalis; [2]): 43%
26 | (14β)-(3′-Fluoro-4′-nitro)phenoxy-3,19-acetonylidene andrographolide [5b4] | – | – | (19) % | (15) % | inhibition rate (%) EF (E. faecalis; [2]): (73) %
27 | (14β)-(4′-Carboxy ethyl ester)phenoxy-3,19-acetonylidene andrographolide [5b9] | – | / (“/”represents no inhibition or lower than 10% inhibition rate at 250 μM of tested compound) | – | (15) % | inhibition rate (%) EF (E. faecalis; [2]): (42) %
28 | (14β)-(4′-Cyano)phenoxy-3,19-acetonylidene andrographolide [5b10] | – | – | (20) % | (22) % | inhibition rate (%) EF (E. faecalis; [2]): (46) %
29 | (14β)-(Quinolyl-4′-oxy)-3,19-acetonylidene andrographolide [5b16] | 15.5 ± 4.2 | / (“/”represents no inhibition or lower than 10% inhibition rate at 250 μM of tested compound) | – | – | inhibition rate SA (symbol /) (S. aureus): / (“/”represents no inhibition or lower than 10% inhibition rate at 250 μM of tested compound)
